Results reported in patent US6492377B1, “Imidazotriazolopyrimidines with adenosine-antagonistic activity” (Boehringer Ingelheim Pharma KG, priority 1998, dated 2002).

Legend:
[1] = biological target: T1, human A1 adenosine Receptor (Homo sapiens, UniProt P30542); assay: KiA1 (human) receptor binding
T1 sequence (P30542 1-326): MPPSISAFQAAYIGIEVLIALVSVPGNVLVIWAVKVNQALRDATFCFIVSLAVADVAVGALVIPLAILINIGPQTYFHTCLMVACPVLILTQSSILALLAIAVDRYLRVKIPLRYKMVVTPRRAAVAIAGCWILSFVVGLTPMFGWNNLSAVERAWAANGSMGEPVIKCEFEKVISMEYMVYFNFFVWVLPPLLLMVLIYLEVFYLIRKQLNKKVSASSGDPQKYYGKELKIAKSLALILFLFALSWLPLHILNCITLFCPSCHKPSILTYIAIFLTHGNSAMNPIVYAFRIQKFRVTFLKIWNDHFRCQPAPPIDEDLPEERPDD
Protocol: The receptor binding values described hereinafter were determined analogously to Ensinger et al. in “Cloning and functional characterisation of human A1 adenosine Receptor—Biochemical and Biophysical Communications, Vol 187, No. 2, 919-926, 1992”.
The Table which follows contains KiA1 (human) receptor binding values.

[2] = biological target: T2, human A3-adenosine receptor (Homo sapiens, UniProt P0DMS8); assay: KiA3 (human) receptor binding
T2 sequence (P0DMS8 1-318): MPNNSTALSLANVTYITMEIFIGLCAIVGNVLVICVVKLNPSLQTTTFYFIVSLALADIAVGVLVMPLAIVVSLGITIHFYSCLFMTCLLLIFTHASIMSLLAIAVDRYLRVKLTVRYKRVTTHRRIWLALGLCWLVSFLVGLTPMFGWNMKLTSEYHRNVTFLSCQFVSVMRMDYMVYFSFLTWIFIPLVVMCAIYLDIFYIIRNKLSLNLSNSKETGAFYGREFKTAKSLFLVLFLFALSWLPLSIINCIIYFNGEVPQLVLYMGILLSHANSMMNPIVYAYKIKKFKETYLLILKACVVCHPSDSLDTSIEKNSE
Protocol: The A3 receptor binding values given hereinafter were determined analogously to […]. “Molecular cloning and characterization of the human A3-adenosine receptor” (Proc. Natl. Acad. Sci. USA 90, 10365-10369, 1993).

“4-Ethyl-2-(2-phenylethyl)-7-n-propyl-imidazo[4.5-e]-s-triazolo[1.5-a]pyrimidin-5-one [Example 83]” gave a Ki [1] of 8.1 nM.

“4-Ethyl-7-methyl-2-(2-phenylethyl)-imidazo[4.5-e]-s-triazolo[1.5-a]pyrimidin-5-one [Example 81]” was tested, and the Ki [2] was 7.2 nM.
